Results reported in article PMC9268448, “Synthesis of 4,5-Dihydro-1H-[1,2]dithiolo[3,4-c]quinoline-1-thione Derivatives and Their Application as Protein Kinase Inhibitors” (Molecules, 2022).

Columns and labels:
NPM1-ALK = target: T1, NPM1-ALK (Homo sapiens, UniProt Q9UM73); assay: Kinase inhibition ELISA, NPM1-ALK; assay type: biochemical; conditions: 10 μM test compound, 150 μM ATP
T1 construct: NPM1 (nucleophosmin, P06748) fusion partner
Experimental: (§1) Study of inhibitory activity. […] The enzymatic reaction was stopped with a buffer containing 20 mM HEPES (Sigma, H4034), pH 7.5, and 150 mM EDTA (Sigma, E5513). […] Incubation was carried out for 1 h at room temperature. […] After completion of each incubation step (60 min at room temperature (~20 °C) and continuous stirring), the plates were washed three times from unbound antibody molecules with a PBS solution with Tween-20 and 100 μL of substrate (3.3′,5.5′-tetramethylbenzidine (TMB) dihydrochloride, Sigma, T8768) prepared according to the manufacturer’s instructions. Before measuring the optical density, the reaction was stopped using 0.5 M Н2SO4. The optical density of the solution was determined at λ = 450 nm using a tablet spectrophotometer (TECAN Safire). The data obtained were processed and imported into the HTSCalc program.
(§2) The data were analyzed using GraphPad Prism software (v. 3.1).

ALK = ALK (Homo sapiens, UniProt Q9UM73); assay: Kinase inhibition ELISA, ALK; assay type: biochemical; conditions: 10 μM test compound, 150 μM ATP
Chain of ALK (Q9UM73 19-1620): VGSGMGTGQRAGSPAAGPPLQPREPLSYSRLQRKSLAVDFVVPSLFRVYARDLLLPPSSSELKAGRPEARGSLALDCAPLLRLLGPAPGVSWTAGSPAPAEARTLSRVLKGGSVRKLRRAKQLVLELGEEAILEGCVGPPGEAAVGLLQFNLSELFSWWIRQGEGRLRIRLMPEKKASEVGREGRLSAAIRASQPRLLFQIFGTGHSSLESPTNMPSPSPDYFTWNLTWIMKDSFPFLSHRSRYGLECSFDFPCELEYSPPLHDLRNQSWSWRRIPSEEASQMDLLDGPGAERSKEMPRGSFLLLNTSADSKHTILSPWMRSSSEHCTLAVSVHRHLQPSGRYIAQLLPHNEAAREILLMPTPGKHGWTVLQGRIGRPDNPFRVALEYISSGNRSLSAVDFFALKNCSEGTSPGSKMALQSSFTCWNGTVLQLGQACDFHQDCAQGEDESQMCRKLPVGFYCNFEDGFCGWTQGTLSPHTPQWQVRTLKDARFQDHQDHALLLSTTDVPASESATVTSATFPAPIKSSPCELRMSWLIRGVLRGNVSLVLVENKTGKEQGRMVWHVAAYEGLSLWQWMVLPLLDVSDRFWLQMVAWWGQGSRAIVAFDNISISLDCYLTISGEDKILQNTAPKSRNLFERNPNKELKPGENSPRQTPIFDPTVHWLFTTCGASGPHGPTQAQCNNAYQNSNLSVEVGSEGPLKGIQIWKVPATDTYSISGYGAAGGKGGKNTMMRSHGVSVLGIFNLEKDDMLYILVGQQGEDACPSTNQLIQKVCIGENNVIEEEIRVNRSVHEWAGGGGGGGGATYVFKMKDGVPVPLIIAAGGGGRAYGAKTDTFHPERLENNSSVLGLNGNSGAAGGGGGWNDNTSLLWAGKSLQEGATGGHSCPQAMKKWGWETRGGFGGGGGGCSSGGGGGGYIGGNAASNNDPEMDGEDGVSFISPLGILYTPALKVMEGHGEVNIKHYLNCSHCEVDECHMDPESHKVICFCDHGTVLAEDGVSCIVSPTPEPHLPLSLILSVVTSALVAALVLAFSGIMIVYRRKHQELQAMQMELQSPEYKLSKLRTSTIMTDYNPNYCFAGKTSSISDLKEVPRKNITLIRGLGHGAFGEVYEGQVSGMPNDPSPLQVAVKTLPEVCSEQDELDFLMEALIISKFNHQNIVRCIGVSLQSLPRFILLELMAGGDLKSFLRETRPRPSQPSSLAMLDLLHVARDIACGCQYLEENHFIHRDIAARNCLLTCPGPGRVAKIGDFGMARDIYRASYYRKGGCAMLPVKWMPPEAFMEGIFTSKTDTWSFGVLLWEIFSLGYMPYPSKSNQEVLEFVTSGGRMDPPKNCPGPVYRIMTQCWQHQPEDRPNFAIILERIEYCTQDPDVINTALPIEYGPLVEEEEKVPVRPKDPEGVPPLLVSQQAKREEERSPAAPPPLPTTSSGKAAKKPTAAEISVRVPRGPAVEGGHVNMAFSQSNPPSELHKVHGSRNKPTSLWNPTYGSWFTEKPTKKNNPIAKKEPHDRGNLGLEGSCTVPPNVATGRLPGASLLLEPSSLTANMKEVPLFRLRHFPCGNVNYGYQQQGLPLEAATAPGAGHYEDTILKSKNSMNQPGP
Experimental: (§3) Study of inhibitory activity. The kinase activity was determined by enzyme-linked immunosorbent assay (ELISA) in polypropylene plates (Costar, 3363) in reaction buffer (20 mM HEPES, pH 7.5, 15 mM MgCl2, 2 mM DTT, 0.2 mM Na3VO4, 0.005% Triton X-100) for 60 min at 30 °C with vigorous stirring. The final concentration of the reaction components: 0.05 μg mL^–1 of the corresponding kinase, 5 nM Histon H3 biotinylated substrate (1–21) (Anaspec, 61702), 150 μM ATP (Sigma, A6419), 10 μM test compound, 5% DMSO. The enzymatic reaction was stopped with a buffer containing 20 mM HEPES (Sigma, H4034), pH 7.5, and 150 mM EDTA (Sigma, E5513). Further, to detect the phosphorylated substrate, the reaction mixture was transferred to pre-prepared plates (Nunc, 468667) coated with neutravidin (1 ng per well; Pierce, 31000) and treated with bovine serum albumin (BSA) to block non-specific binding sites. Incubation was carried out for 1 h at room temperature. After washing the plates three times with phosphate buffer saline (PBS, pH 7.4) with Tween-20, they were incubated sequentially with anti-phospho-Histon H3 antibodies (0.3 ng μL^–1; Millipore, 04-746) and with specific antibodies conjugated with an enzyme-label (peroxidase) Anti-rabbit IgG, HRP-linked Antibody (titer 1/5000; Cell Signaling, 7074). After completion of each incubation step (60 min at room temperature (~20 °C) and continuous stirring), the plates were washed three times from unbound antibody molecules with a PBS solution with Tween-20 and 100 μL of substrate (3.3′,5.5′-tetramethylbenzidine (TMB) dihydrochloride, Sigma, T8768) prepared according to the manufacturer’s instructions. Before measuring the optical density, the reaction was stopped using 0.5 M Н2SO4. The optical density of the solution was determined at λ = 450 nm using a tablet spectrophotometer (TECAN Safire). The data obtained were processed and imported into the HTSCalc program.

EGFR[L858R][T790] = EGFR[L858R][T790] (Homo sapiens, UniProt P00533, L858R/T790M); assay: Kinase inhibition ELISA, EGFR[L858R][T790]; assay type: biochemical; conditions: 10 μM test compound, 150 μM ATP
Experimental: as §3

cRAF[Y340D][Y341D] = cRAF[Y340D][Y341D] (Homo sapiens, UniProt P04049, Y340D/Y341D); assay: Kinase inhibition ELISA, cRAF[Y340D][Y341D]; assay type: biochemical; conditions: 10 μM test compound, 150 μM ATP
Chain of cRAF[Y340D][Y341D] (P04049 whole entry Y340D/Y341D): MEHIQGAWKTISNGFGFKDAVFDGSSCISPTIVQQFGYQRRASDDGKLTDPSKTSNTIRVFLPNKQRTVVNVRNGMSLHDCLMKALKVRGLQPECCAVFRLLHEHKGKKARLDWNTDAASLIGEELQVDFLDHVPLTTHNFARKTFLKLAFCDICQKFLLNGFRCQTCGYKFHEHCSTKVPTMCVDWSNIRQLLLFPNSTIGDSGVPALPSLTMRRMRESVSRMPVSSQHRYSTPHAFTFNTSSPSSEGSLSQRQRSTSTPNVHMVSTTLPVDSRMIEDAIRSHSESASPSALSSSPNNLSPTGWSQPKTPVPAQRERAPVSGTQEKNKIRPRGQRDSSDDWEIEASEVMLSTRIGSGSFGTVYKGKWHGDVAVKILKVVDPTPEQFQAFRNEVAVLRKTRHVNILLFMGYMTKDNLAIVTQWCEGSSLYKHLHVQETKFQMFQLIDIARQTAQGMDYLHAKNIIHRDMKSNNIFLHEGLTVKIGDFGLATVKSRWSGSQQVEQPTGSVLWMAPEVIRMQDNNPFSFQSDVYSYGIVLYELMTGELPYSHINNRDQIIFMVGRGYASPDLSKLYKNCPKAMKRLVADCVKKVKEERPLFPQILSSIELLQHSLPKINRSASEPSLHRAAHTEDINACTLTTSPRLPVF
Experimental: as §1, §2

JAK2 = JAK2 (Homo sapiens, UniProt O60674); assay: Kinase inhibition ELISA, JAK2; assay type: biochemical; conditions: 10 μM test compound, 150 μM ATP
Chain of JAK2 (O60674 whole entry): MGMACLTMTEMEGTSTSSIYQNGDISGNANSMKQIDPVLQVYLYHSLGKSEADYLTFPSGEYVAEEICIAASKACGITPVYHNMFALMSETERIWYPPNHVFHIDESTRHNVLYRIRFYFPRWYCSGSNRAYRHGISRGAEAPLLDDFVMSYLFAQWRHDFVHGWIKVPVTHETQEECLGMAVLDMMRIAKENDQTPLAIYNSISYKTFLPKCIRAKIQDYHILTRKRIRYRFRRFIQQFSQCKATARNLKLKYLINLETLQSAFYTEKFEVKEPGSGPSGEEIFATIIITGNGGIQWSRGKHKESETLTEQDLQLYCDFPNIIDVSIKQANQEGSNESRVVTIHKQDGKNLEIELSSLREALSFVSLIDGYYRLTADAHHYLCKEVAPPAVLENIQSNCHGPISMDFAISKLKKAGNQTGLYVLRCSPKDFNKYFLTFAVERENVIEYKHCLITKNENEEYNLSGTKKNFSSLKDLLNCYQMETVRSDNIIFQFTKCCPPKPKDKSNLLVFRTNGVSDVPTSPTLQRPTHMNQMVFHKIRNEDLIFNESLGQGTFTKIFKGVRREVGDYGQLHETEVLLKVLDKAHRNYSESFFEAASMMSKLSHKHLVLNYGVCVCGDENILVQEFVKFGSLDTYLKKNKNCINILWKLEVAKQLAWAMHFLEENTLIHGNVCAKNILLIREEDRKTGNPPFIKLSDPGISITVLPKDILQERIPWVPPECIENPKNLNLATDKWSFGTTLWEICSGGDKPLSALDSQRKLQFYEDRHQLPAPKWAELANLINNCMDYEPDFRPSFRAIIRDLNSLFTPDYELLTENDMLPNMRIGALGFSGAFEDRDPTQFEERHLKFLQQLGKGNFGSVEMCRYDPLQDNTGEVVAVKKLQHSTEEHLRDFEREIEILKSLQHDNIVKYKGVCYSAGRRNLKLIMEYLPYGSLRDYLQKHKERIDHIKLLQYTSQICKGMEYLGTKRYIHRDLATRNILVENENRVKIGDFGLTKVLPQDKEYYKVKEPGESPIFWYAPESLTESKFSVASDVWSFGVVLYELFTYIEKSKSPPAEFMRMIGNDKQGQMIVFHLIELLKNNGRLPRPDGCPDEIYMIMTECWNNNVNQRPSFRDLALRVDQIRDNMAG
Experimental: as §3

JAK3 = target: T2, JAK3 (Homo sapiens, UniProt P52333); assay: Kinase inhibition ELISA, JAK3; assay type: biochemical; conditions: 10 μM test compound, 150 μM ATP
T2 sequence (P52333 1-1124): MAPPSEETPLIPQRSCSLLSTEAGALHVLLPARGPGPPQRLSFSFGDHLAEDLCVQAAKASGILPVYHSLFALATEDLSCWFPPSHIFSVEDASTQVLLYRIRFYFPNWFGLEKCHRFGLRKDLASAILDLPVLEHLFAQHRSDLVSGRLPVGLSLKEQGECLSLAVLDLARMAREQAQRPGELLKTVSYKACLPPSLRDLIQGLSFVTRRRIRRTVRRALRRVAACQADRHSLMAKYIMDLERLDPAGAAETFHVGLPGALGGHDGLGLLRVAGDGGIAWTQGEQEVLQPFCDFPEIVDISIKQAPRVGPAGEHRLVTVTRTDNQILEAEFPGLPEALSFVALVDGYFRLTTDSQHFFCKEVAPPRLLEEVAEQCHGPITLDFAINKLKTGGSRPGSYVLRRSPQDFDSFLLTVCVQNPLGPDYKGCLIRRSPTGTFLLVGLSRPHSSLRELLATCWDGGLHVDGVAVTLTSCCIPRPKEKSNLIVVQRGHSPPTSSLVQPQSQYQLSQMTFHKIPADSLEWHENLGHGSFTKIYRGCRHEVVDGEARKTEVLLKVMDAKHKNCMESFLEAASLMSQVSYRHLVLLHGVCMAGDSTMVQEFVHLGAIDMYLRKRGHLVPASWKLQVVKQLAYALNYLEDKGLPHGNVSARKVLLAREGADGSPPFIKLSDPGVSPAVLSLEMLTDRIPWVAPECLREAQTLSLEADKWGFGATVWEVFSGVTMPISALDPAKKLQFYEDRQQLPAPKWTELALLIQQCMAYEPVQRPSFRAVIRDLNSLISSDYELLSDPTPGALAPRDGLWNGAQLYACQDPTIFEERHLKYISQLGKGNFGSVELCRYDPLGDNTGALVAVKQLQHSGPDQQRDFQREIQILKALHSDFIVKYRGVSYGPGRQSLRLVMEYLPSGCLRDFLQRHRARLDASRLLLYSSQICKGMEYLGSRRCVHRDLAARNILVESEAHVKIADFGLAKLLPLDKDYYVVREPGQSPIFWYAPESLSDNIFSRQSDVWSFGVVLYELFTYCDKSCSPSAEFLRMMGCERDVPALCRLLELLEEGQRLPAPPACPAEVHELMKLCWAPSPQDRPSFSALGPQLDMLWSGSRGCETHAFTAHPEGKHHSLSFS
Experimental: as §3
For compounds 2a–c,q, the IC50 value (μmol L^–1) was calculated from ten concentration points (in triplicate dilution) obtained twice. The data were analyzed using GraphPad Prism software (v. 3.1).

[1] = Solubility in DMSO (noted during NMR); assay type: physicochemical; conditions: in words; NMR sample in DMSO
Experimental: The signal for the carbon atom of the imino group at 166.6 ppm was detected in the spectrum of the arylimino derivative 2q. In the mass spectra of compounds 2h, 2i–n, and 2q, peaks of protonated molecular ions, consistent with the structure of these compounds, were observed.

T1 sequence (Q9UM73 whole entry, looked up, the tested form may be a part): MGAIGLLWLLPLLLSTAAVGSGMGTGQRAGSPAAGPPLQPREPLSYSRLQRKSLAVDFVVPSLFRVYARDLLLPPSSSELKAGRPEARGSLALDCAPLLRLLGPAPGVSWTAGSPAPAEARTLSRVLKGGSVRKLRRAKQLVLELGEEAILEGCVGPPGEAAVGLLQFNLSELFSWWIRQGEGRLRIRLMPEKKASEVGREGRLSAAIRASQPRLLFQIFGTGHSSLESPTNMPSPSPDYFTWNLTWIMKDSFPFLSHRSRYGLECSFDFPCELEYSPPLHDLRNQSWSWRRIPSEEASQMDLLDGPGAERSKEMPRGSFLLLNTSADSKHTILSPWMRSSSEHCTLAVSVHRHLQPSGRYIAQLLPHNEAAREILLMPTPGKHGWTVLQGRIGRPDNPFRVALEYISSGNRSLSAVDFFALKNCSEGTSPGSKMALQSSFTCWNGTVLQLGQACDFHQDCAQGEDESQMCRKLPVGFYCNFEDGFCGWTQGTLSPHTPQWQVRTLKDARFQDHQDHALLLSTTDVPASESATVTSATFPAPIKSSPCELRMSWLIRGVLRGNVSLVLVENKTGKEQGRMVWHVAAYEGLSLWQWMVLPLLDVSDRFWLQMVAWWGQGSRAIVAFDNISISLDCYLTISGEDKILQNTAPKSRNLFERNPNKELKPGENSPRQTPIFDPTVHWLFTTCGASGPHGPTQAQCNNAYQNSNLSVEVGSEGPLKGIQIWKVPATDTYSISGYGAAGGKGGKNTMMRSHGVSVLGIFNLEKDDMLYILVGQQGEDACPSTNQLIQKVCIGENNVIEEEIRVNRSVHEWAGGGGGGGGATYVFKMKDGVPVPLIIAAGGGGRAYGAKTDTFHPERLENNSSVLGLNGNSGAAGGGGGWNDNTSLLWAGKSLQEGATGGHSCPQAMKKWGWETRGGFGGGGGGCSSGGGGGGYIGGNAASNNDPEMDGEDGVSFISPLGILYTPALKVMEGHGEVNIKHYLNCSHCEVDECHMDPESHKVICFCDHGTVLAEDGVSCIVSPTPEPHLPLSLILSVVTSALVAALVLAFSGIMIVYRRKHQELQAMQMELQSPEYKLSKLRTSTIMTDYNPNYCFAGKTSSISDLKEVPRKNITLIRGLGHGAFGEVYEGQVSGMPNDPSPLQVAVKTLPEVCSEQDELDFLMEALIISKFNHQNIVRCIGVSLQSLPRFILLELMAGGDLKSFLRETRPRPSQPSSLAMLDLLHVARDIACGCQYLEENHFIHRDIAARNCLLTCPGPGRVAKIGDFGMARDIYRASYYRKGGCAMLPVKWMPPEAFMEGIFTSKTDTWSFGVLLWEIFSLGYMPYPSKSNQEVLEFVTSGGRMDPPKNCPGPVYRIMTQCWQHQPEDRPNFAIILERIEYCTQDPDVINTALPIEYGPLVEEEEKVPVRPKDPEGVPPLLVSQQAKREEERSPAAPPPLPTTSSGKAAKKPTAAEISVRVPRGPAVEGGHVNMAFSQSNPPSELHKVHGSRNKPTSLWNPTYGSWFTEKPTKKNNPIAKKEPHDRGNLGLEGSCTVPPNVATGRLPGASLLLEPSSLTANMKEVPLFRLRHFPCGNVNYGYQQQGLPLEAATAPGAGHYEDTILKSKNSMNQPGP

inhibition at 10 µM (NPM1-ALK): 24% | inhibition at 10 µM (ALK): 19% | inhibition at 10 µM (EGFR[L858R][T790]): 5% | inhibition at 10 µM (cRAF[Y340D][Y341D]): 13% | inhibition at 10 µM (JAK2): 47% | inhibition at 10 µM (JAK3): 52% | solubility in DMSO [1]: low solubility in DMSO | melting point: > 260 °C
SMILES: CC1(C)c2ssc(=S)c2-c2cc3c(c4c2N1C(=O)C4=O)OCCO3 [2n, 8,8-Dimethyl-11-thioxo-2,3,8,11-tetrahydro[1,4]dioxino[2,3-g][1,2]dithiolo[3,4-c]pyrrolo[3,2,1-ij]quinoline-5,6-dione]
